Laboratory results taken from patent publication US9109004B2, “Progesterone receptor antagonists” (Bayer Intellectual Property GmbH, priority 2010, dated 2015).

Tests used:
[1] = target: T1, human progesterone receptor B (Homo sapiens, UniProt P06401); assay: Progesterone-receptor-antagonistic action in stably transfected SK-N-MC cells, MTV-LUC reporter (PR-B); assay type: cell-based; conditions: antagonistic potency vs 0.1 nmol/l promegestone, 24 hours, luciferase
T1 construct: expressed in transfected cells; host or cells: SK-N-MC human neuroblastoma cells, stably transfected
T1 sequence (P06401 1-933): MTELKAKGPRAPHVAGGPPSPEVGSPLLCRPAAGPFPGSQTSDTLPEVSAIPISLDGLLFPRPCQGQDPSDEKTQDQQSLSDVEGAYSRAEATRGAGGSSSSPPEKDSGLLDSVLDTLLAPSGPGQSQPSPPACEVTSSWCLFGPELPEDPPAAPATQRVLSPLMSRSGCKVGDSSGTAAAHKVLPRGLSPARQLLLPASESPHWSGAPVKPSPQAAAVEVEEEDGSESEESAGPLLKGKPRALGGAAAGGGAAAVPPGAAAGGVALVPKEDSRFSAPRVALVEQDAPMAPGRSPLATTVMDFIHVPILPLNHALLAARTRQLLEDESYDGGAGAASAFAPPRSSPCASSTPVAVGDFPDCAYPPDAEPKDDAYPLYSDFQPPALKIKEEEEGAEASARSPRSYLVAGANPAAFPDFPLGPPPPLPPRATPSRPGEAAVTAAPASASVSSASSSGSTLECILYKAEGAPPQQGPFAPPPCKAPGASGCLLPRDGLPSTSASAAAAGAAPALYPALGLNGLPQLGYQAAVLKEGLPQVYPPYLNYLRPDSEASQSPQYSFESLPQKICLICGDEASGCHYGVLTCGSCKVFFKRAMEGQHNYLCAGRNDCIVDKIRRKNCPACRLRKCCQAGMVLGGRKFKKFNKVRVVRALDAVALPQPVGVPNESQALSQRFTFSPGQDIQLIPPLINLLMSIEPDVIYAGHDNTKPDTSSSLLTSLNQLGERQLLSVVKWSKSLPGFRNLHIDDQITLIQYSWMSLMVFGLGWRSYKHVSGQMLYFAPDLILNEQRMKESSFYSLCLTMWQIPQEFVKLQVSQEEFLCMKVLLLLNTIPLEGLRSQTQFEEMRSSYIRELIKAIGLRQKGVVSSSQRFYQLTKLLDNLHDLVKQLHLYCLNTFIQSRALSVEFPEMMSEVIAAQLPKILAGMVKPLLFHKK
Protocol: Progesterone-Receptor-Antagonistic Action in Stable Transfectants of Human Neuroblastoma Cells (SK-N-MC Cells) with the Human Progesterone A or Progesterone B Receptor and an MTV-LUC Reporter Construct
SK-N-MC cells (human neuroblastoma cells) that have been stably transfected with plasmids that express the human progesterone receptor B (pRChPR-B-neo) or the human progesterone receptor A (pRChPR-A-neo) and a reporter construct (pMMTV-LUC), were incubated for 24 hours either in the absence (negative control) or in the presence of increasing amounts of the particular test compound (0.01 nmol/l, 0.1 nmol/l, 1 nmol/l, 10 nmol/l, 100 nmol/l and 1 μmol/l), to determine the agonistic efficacy. As positive control of reporter gene induction, the cells were treated with the synthetic gestagen promegestone (0.01 nmol/l, 0.1 nmol/l, 1 nmol/l, 10 nmol/l, 100 nmol/l and 1 μmol/l). For determination of the antagonistic activity, the cells were treated with 0.1 nmol/l promegestone and additionally with increasing amounts of the particular test compound (0.01 nmol/l, 0.1 nmol/l, 1 nmol/l, 10 nmol/l, 100 nmol/l and 1 μmol/l). The activity of the reporter gene LUC (LUC=luciferase) was determined in the cell lysates and was measured as RLU (relative light units). All measured values are given as % efficacy and as EC50 or IC50 concentrations.

[2] = Metabolic stability in human liver microsomes (HLM); assay type: in vitro ADME; conditions: from HLM half-life, well-stirred model, phase I reactions; 1 μM test compound
Protocol: Metabolic stability of 4-[(11β,17β)-17-hydroxy-3-oxo-17-(pentafluoro-ethyl)estra-4,9-dien-11-yl]benzamide and 4′-[(11β,17β)-17-hydroxy-3-oxo-17-(pentafluoro-ethyl)estra-4,9-dien-11-yl]biphenyl-4-carboxamide in human liver microsomes (HLM) Isolated human liver microsomes (HLM) were used for assessing the metabolic stability of compounds of general formula I. The incubations were carried out with 2.4 ml HLM solution (0.5 mg/ml protein content), 30 μl of the test compound (final concentration 1 μM) and 0.6 ml of the cofactor mixture (=NADPH-generating system of 3 IU glucose-6-phosphate dehydrogenase, 14.6 mg glucose-6-phosphate, 1.2 mg NADP) at 37° C. in 100 mM phosphate buffer at pH 7.4. Samples are taken at 6 time points (2-60 min), precipitated with an equal volume of methanol, and the recovery of the test substances used in the supernatant is determined by LC-MS/MS analysis. The intrinsic clearance of the substance in the liver microsome assay can be calculated from the value found for the half-life of substance breakdown. Using this, on the basis of various physiological characteristics according to the well-stirred model it is possible to predict a (metabolic) in-vivo clearance with respect to phase I reactions.

pregnant rats = assay: Test as abortifacient in female rats (termination of early pregnancy); assay type: in vivo, rat; conditions: d5-d7 p.c., autopsy d9 p.c.
Protocol: Test as Abortifacient in Female Rats
The antagonistic action of the compounds according to the invention was tested on pregnant rats (6 rats per group) on day 5 to 7 post coitum in conventional conditions of husbandry and feeding.
After successful mating, the pregnant animals (presence of sperm in the vaginal smear on day 1 of pregnancy=d1 p.c.) were randomized and were divided into the treatment group and the control group. The animals then received, subcutaneously or orally, in each case 0.15; 0.5; 1.5 or 5 mg/kg of the test compound or 1.0 ml/kg of vehicle (benzyl benzoate/castor oil: 1+4 [v/v]) daily from day 5 to day 7 (d5-d7 p.c.).
Autopsy was carried out on day 9 (d9 p.c.). For characterization of progesterone-receptor-antagonistic action, the uterus was investigated for the presence of nidation sites. Complete absence, but also the presence of pathological, haemorrhagic or otherwise abnormal nidation sites on day 9 (d9 p.c.) was assessed as abortion.

Question: What does the source list for C[C@]12C[C@H](c3ccc(C(N)=O)cc3)C3=C4CCC(=O)C=C4CC[C@H]3[C@@H]1CC[C@@]2(O)C(F)(F)C(F)(F)F [Example 1, 4-[(11β,17β)-17-Hydroxy-3-oxo-17-(pentafluoroethyl)estra-4,9-dien-11-yl]benzamide]?
Answer: IC50 [1]: 0.9 nM; (metabolic) in-vivo clearance in humans predicted [2]: 5.5 mL/min/kg; Abortion rate (pregnant rats; daily dose 0.5 mg/kg p.o.): 0%; Abortion rate (pregnant rats; daily dose 1.5 mg/kg p.o.): 50%; Abortion rate (pregnant rats; daily dose 5.0 mg/kg p.o.): 100%
